ChEMBL document CHEMBL3797052 (Eur J Med Chem, 2016)

Legend:
[1] = target: CYP2D6 (Homo sapiens, UniProt P10635); experiment: Inhibition of recombinant human CYP2D6 assessed as remaining enzyme activity using CYP2D6 blue as substrate at 10 uM after 5 mins in presence of NADP by fluorescence plate reader analysis; assay type: ADME; details: recombinant human CYP2D6, probe CYP2D6 blue, read-out: Activity
[2] = Antiproliferative activity against human HOP92 cells assessed as cell growth at 10^-7 M after 48 hrs by sulforhodamine B assay; assay type: functional; details: HOP-92, 48 h, read-out: Activity
[3] = Antiproliferative activity against human SF539 cells assessed as cell growth at 10^-7 M after 48 hrs by sulforhodamine B assay; assay type: functional; details: SF-539, 48 h, read-out: Activity
[4] = Antiproliferative activity against human BT549 cells assessed as cell growth at 10^-6 M after 48 hrs by sulforhodamine B assay; assay type: functional; details: BT-549, 48 h, read-out: Activity
[5] = test system: SK-MEL-5; experiment: Antiproliferative activity against human SK-MEL-5 cells assessed as growth inhibition after 48 hrs by sulforhodamine B assay; assay type: functional; details: SK-MEL-5, 48 h; for CC50: read-out: LC50 (the source's name)
[6] = test system: SK-MEL-2; experiment: Antiproliferative activity against human SK-MEL-2 cells assessed as growth inhibition after 48 hrs by sulforhodamine B assay; assay type: functional; details: SK-MEL-2, 48 h; for CC50: read-out: LC50 (the source's name)
[7] = test system: MDA-MB-435; experiment: Antiproliferative activity against human MDA-MB-435 cells assessed as growth inhibition after 48 hrs by sulforhodamine B assay; assay type: functional; details: MDA-MB-435, 48 h; for CC50: read-out: LC50 (the source's name)
[8] = Antiproliferative activity against human OVCAR5 cells assessed as cell growth at 10^-7 M after 48 hrs by sulforhodamine B assay; assay type: functional; details: OVCAR-5, 48 h, read-out: Activity
[9] = Antiproliferative activity against human SKOV3 cells assessed as cell growth at 10^-7 M after 48 hrs by sulforhodamine B assay; assay type: functional; details: SK-OV-3, 48 h, read-out: Activity
[10] = Antiproliferative activity against human PC3 cells assessed as cell growth at 10^-7 M after 48 hrs by sulforhodamine B assay; assay type: functional; details: PC-3, 48 h, read-out: Activity
[11] = test system: MDA-MB-231; experiment: Antiproliferative activity against human MDA-MB-231 cells assessed as cell growth at 10^-7 M after 48 hrs by sulforhodamine B assay; assay type: functional; details: MDA-MB-231, 48 h, read-out: Activity
[12] = Antiproliferative activity against human SW620 cells assessed as growth inhibition after 48 hrs by sulforhodamine B assay; assay type: functional; details: SW-620, 48 h; for CC50: read-out: LC50 (the source's name)
[13] = test system: HT-29; experiment: Antiproliferative activity against human HT-29 cells assessed as growth inhibition after 48 hrs by sulforhodamine B assay; assay type: functional; details: HT-29, 48 h
[14] = Antiproliferative activity against human HOP62 cells assessed as growth inhibition after 48 hrs by sulforhodamine B assay; assay type: functional; details: HOP-62, 48 h
[15] = Antiproliferative activity against human RPMI8226 cells assessed as growth inhibition after 48 hrs by sulforhodamine B assay; assay type: functional; details: RPMI-8226, 48 h
[16] = target: RAF proto-oncogene serine/threonine-protein kinase (Homo sapiens, UniProt P04049); experiment: Inhibition of human CRAF at 10 uM measured after 40 mins by scintillation counting
[17] = target: CYP2C9 (Homo sapiens, UniProt P11712); experiment: Inhibition of recombinant human CYP2C9 assessed as remaining enzyme activity using CYP2C9 green as substrate at 10 uM after 5 mins in presence of NADP by fluorescence plate reader analysis; assay type: ADME; details: recombinant human CYP2C9, probe CYP2C9 green, read-out: Activity
[18] = Antiproliferative activity against human RPMI8226 cells assessed as cell growth at 10^-8 M after 48 hrs by sulforhodamine B assay; assay type: functional; details: RPMI-8226, 48 h, read-out: Activity
[19] = test system: HT-29; experiment: Antiproliferative activity against human HT-29 cells assessed as cell growth at 10^-8 M after 48 hrs by sulforhodamine B assay; assay type: functional; details: HT-29, 48 h, read-out: Activity
[20] = Antiproliferative activity against human SF295 cells assessed as cell growth at 10^-8 M after 48 hrs by sulforhodamine B assay; assay type: functional; details: SF-295, 48 h, read-out: Activity
[21] = test system: SR; experiment: Antiproliferative activity against human SR cells assessed as cell growth at 10^-6 M after 48 hrs by sulforhodamine B assay; assay type: functional; details: read-out: Activity
[22] = test system: NCI-H322M; experiment: Antiproliferative activity against human NCI-H322M cells assessed as cell growth at 10^-6 M after 48 hrs by sulforhodamine B assay; assay type: functional; details: read-out: Activity
[23] = test system: NCI-H322M; experiment: Antiproliferative activity against human NCI-H322M cells assessed as cell growth at 10^-4 M after 48 hrs by sulforhodamine B assay; assay type: functional; details: read-out: Activity
[24] = Antiproliferative activity against human SW620 cells assessed as cell growth at 10^-4 M after 48 hrs by sulforhodamine B assay; assay type: functional; details: SW-620, 48 h, read-out: Activity
[25] = test system: SK-MEL-5; experiment: Antiproliferative activity against human SK-MEL-5 cells assessed as cell growth at 10^-8 M after 48 hrs by sulforhodamine B assay; assay type: functional; details: SK-MEL-5, 48 h, read-out: Activity
[26] = Antiproliferative activity against human OVCAR5 cells assessed as cell growth at 10^-8 M after 48 hrs by sulforhodamine B assay; assay type: functional; details: OVCAR-5, 48 h, read-out: Activity
[27] = Antiproliferative activity against human Hs 578T cells assessed as cell growth at 10^-8 M after 48 hrs by sulforhodamine B assay; assay type: functional; details: read-out: Activity
[28] = Antiproliferative activity against human UACC62 cells assessed as cell growth at 10^-6 M after 48 hrs by sulforhodamine B assay; assay type: functional; details: UACC-62, 48 h, read-out: Activity
[29] = Antiproliferative activity against human SKOV3 cells assessed as cell growth at 10^-6 M after 48 hrs by sulforhodamine B assay; assay type: functional; details: SK-OV-3, 48 h, read-out: Activity
[30] = test system: A498; experiment: Antiproliferative activity against human A498 cells assessed as cell growth at 10^-6 M after 48 hrs by sulforhodamine B assay; assay type: functional; details: A498, 48 h, read-out: Activity
[31] = test system: SN12C; experiment: Antiproliferative activity against human SN12C cells assessed as cell growth at 10^-6 M after 48 hrs by sulforhodamine B assay; assay type: functional; details: read-out: Activity
[32] = test system: MDA-MB-435; experiment: Antiproliferative activity against human MDA-MB-435 cells assessed as cell growth at 10^-4 M after 48 hrs by sulforhodamine B assay; assay type: functional; details: MDA-MB-435, 48 h, read-out: Activity
[33] = Antiproliferative activity against human NCI-ADR-RES cells assessed as cell growth at 10^-4 M after 48 hrs by sulforhodamine B assay; assay type: functional; details: read-out: Activity
[34] = test system: 786-0; experiment: Antiproliferative activity against human 786-0 cells assessed as cell growth at […] after 48 hrs by sulforhodamine B assay; assay type: functional; details: 786-0, 48 h, read-out: Activity
[35] = Antiproliferative activity against human MOLT4 cells assessed as cell growth at 10^-4 M after 48 hrs by sulforhodamine B assay; assay type: functional; details: MOLT-4, 48 h, read-out: Activity

CYP2D6, sequence (P10635 whole entry): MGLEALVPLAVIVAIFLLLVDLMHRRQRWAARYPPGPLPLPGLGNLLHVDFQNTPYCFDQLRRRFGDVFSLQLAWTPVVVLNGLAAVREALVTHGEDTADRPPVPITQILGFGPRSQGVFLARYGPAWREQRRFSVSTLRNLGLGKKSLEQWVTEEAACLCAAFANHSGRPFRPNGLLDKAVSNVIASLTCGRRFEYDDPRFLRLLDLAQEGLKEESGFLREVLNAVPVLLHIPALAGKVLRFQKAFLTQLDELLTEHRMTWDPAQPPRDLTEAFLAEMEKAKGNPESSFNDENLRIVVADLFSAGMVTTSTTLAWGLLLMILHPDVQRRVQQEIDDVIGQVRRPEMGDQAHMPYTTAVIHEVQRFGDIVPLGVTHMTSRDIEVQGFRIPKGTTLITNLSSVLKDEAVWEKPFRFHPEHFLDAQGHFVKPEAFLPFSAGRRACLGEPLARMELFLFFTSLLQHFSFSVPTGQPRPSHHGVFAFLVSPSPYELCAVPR
CYP2C9, sequence (P11712 whole entry): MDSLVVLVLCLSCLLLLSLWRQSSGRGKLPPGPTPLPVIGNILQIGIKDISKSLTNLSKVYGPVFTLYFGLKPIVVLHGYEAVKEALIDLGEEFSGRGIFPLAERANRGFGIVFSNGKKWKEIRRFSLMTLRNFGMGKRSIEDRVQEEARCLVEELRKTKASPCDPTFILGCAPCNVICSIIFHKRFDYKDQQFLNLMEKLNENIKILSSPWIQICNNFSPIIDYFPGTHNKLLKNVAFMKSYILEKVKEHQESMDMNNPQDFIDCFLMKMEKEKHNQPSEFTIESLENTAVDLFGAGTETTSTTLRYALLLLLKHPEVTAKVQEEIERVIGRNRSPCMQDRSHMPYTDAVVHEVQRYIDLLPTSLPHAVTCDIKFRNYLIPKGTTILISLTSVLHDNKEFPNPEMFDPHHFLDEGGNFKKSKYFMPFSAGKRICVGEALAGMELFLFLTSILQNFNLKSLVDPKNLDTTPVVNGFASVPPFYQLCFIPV
RAF proto-oncogene serine/threonine-protein kinase, sequence (P04049 whole entry): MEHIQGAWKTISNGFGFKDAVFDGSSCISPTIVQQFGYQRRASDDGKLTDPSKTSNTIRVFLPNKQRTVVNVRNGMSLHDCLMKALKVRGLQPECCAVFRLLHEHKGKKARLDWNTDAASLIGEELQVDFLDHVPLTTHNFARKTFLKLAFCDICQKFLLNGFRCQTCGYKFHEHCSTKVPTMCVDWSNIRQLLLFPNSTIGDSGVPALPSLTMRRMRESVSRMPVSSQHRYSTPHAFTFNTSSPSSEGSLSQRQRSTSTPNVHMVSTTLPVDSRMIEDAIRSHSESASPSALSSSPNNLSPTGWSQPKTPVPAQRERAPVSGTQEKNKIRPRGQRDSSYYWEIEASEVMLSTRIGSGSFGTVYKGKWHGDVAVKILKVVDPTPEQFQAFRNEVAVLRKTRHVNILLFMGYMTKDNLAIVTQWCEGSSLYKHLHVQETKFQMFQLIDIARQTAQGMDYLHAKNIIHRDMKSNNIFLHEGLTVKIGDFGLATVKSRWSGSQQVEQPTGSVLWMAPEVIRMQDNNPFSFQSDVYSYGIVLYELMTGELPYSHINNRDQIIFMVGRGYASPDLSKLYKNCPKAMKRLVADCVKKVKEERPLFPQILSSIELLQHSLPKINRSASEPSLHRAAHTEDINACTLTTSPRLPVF

Work on `CNC(=O)c1cc(Oc2ccc3nc(NC(=O)Nc4cc(C(F)(F)F)cc(C(F)(F)F)c4)sc3c2)ccn1` yielded an activity at 5 min, 10 µM [1] of 91.5%, a growth at 0.1 µM [2] of 98% and a growth at 0.1 µM [3] of 99%. The growth at 1 µM [4] was 67%, the GI50 [5] was 0.593 µM and the TGI [5] was 2.09 µM. It also gave a CC50 [5] of 5.87 µM, a GI50 [6] of 1.05 µM and a TGI [6] of 3.13 µM. The CC50 [6] was 9.31 µM, the GI50 [7] was 1.04 µM and the TGI [7] was 2.7 µM. The CC50 [7] was 6.99 µM, the growth at 0.1 µM [8] was 98% and the growth at 0.1 µM [9] was 99%. For the same molecule, the growth at 0.1 µM [10] was 99%, the growth at 0.1 µM [11] was 98% and the GI50 [12] was 1.56 µM. It also gave a TGI [12] of 3.29 µM, a CC50 [12] of 6.97 µM and a GI50 [13] of 1.21 µM. It also gave an LC50 [13] of 6.17 µM, a TGI [13] of 2.73 µM and a GI50 [14] of 1.15 µM. It also gave an LC50 [14] of 6.79 µM, a TGI [14] of 2.8 µM and a GI50 [15] of 1.02 µM. It also gave an LC50 [15] of 76.3 µM, a TGI [15] of 3.81 µM and an inhibition [16] of 77%. The activity at 5 min, 10 µM [17] was 88.2%, the growth at 0.01 µM [18] was 104% and the growth at 0.01 µM [19] was 97%. It also gave a growth at 0.01 µM [20] of 87%, a growth at 1 µM [21] of 34% and a growth at 1 µM [22] of 73%. For the same molecule, the growth at 100 µM [23] was -50%, the growth at 100 µM [24] was -71% and the growth at 0.01 µM [25] was 97%. The growth at 0.01 µM [26] was 94%, the growth at 0.01 µM [27] was 96% and the growth at 1 µM [28] was 37%. The growth at 1 µM [29] was 72%, the growth at 1 µM [30] was 51% and the growth at 1 µM [31] was 80%. It also gave a growth at 100 µM [32] of -80%, a growth at 100 µM [33] of -49% and a growth at 100 µM [34] of -94%.
Molecule `CNC(=O)c1cc(Oc2ccc3nc(NC(=O)Nc4ccc(Cl)c(Cl)c4)sc3c2)ccn1` has an activity at 5 min, 10 µM [1] of 96.4%, a growth at 0.1 µM [2] of 110% and a growth at 0.1 µM [3] of 100%. For the same molecule, the growth at 1 µM [4] was 102%, the GI50 [5] was 2.24 µM and the TGI [5] was 5.58 µM. For the same molecule, the CC50 [5] was over 100 µM, the GI50 [6] was 2.56 µM and the TGI [6] was 5.97 µM. For the same molecule, the CC50 [6] was over 100 µM, the GI50 [7] was 2.02 µM and the TGI [7] was 4.62 µM. The CC50 [7] was over 100 µM, the growth at 0.1 µM [9] was 115% and the growth at 0.1 µM [10] was 100%. The growth at 0.1 µM [11] was 97%, the GI50 [12] was 8.11 µM and the TGI [12] was over 100 µM. For the same molecule, the CC50 [12] was over 100 µM, the GI50 [13] was 2.16 µM and the TGI [13] was 4.31 µM. The GI50 [14] was 2.24 µM, the LC50 [14] was 7.15 µM and the TGI [14] was 4 µM. For the same molecule, the GI50 [15] was 3.66 µM, the LC50 [15] was over 100 µM and the TGI [15] was over 100 µM. For the same molecule, the inhibition [16] was 98.6%, the activity at 5 min, 10 µM [17] was 90% and the growth at 0.01 µM [18] was 96%. The growth at 0.01 µM [19] was 107%, the growth at 0.01 µM [20] was 86% and the growth at 1 µM [21] was 97%. For the same molecule, the growth at 1 µM [22] was 84%, the growth at 100 µM [35] was 78% and the growth at 100 µM [23] was 4%. For the same molecule, the growth at 100 µM [24] was 48%, the growth at 0.01 µM [25] was 99% and the growth at 0.01 µM [27] was 100%. The growth at 1 µM [28] was 85%, the growth at 1 µM [29] was 117% and the growth at 1 µM [30] was 115%. The growth at 1 µM [31] was 102%, the growth at 100 µM [32] was -30% and the growth at 100 µM [33] was -49%. It also gave a growth at 100 µM [34] of -67%.
For `CNC(=O)c1cc(Oc2ccc(NC(=O)Nc3ccc(Cl)c(C(F)(F)F)c3)cc2)ccn1` [SORAFENIB], the TGI [5] was 3.16 µM, the CC50 [5] was 5.01 µM and the GI50 [6] was 2 µM. It also gave a TGI [6] of 3.16 µM, a CC50 [6] of 6.31 µM and a TGI [7] of 3.98 µM. The CC50 [7] was 10 µM, the GI50 [12] was 2.51 µM and the TGI [12] was 12.6 µM. It also gave a CC50 [12] of 39.8 µM, a GI50 [13] of 2 µM and a TGI [13] of 7.94 µM. For the same molecule, the GI50 [14] was 2 µM, the TGI [14] was 7.94 µM and the TGI [15] was 6.31 µM.
